Data on eleven compounds can be found in patent US20240132492A1, “PYRIDOPYRIMIDINE-BASED COMPOUND AND APPLICATION THEREOF” (JINAN UNIVERSITY, priority 2021, published 2024).

Bounds are passed on as bounds.

Holding throughout (type): cell-based
For one experiment, the system named is H1299. The experiment is described as follows: CCK-8 tumor cell proliferation, H1299. The note with it: Homo sapiens, NCI-H1299, H1299 cells, 72 hours. As to the method: (§1) Tumor cells (see Table 2 to Table 5) were inoculated in 96-well plates in complete culture medium (2000-3000 cells/well). After overnight incubation, the compounds with different concentrations (0.000508 μM-10 μM) were used to treat the cells separately for 72 hours. CCK-8 (Cell Counting Kit 8, Dojindo Laboratories, Kumamoto, Japan) experiment was used to evaluate cell proliferation. GraphPad Prism 5.0 software (La Jolla, CA) was used to calculate the half-maximal inhibitory concentration (IC50) values by fitting the concentration response curve. Each IC50 value was represented as an average value±SD.

The test system of the next experiment is H1975OR. The experiment is described as follows: CCK-8 tumor cell proliferation, H1975OR. The following applies: H1975OR cells (Osimertinib resistant), 72 hours. As for the experimental part: (§2) Cell line: Non-small cell lung cancer H1975-OR cell line, which is an Osimertinib resistant H1975 cell line, and could be obtained through low dose gradual addition culture. Specific method: H1975 cells were spread in a 10 cm culture dish at a convergence rate of 60-70%, added 50 nM of Osimertinib to the culture medium. After the cell state stabilized, the concentration of Osimertinib was gradually double to 3 μM.
as §1

Another experiment has as its target AKT3 (Homo sapiens, UniProt Q9Y243). The experiment is described as follows: Western Blot, degradation of AKT3 protein in H1975-OR cells. More on the design: endogenous in cells; host or cells: H1975-OR (osimertinib-resistant H1975). The note with it: 1000 nM, 24 hours, maximum degradation rate. As for the experimental part: as §2
(§3) Conventional Western Blot (immunoblotting) was used for detection, as follows: a certain number of H1975-OR cells were planted on a 96 well plate, adherent cultured in an incubator overnight, and added a certain concentration of compound to act for 24 hours. 1×SDS lysis buffer with protease and phosphatase inhibitors was used to lyse cells. Cell lysates were separated by SDS-PAGE and transferred to PVDF membrane. Then, at room temperature, the PCDF membrane was taken out and immersed in a sealing solution (5% BSA TBS solution containing 0.5% Tween-20) for sealing treatment for 1 hour, and then incubated with a specific primary antibody at 4° C. overnight. The imprints were washed with TBST and incubated with horseradish peroxidase (HRP) labeled secondary antibodies at room temperature for 2 hours. Finally, ECL plus fluorescence detection reagent (Thermo Scientific, Waltham, MA) was used for protein development, and the Amersham Imager 600 system (GE, America) was used for photography. The detection results were processed using ImageJ software to obtain the grayscale value G (Density).

The target in another experiment is T1, AKT1 (Homo sapiens, UniProt P31749).
T1 construct: AKT1, AKT2, and AKT3 proteins in H1975-OR cells; endogenous in cells; host or cells: H1975-OR (osimertinib-resistant H1975)
T1 sequence (P31749 whole entry): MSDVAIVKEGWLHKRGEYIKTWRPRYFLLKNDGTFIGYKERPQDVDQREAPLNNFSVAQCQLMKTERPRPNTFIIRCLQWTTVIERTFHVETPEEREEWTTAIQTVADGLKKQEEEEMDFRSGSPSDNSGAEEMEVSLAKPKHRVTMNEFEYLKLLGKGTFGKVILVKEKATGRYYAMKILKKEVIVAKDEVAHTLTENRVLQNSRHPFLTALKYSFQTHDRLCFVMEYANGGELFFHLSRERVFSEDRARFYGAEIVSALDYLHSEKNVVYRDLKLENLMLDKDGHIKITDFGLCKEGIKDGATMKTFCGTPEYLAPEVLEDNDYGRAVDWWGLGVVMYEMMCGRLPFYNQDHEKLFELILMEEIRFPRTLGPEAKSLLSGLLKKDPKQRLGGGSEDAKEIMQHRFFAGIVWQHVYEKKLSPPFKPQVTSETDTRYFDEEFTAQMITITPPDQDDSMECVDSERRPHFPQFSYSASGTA
The experiment is described as follows: Western Blot, degradation of AKT1 protein in H1975-OR cells. The following applies: 1000 nM, 24 hours, maximum degradation rate. As to the method: as §2, §3

The test system of the next experiment is HCC827. The experiment in a line: CCK-8 tumor cell proliferation, HCC827. The note with it: Homo sapiens, HCC827 cells, 72 hours. As to the method: as §1
For the next experiment, the system named is PC-9. The experiment in a line: CCK-8 tumor cell proliferation, PC-9. The note with it: Homo sapiens, PC-9 cells, 72 hours. As for the experimental part: as §1
In the next experiment the test system is H1975. The experiment in a line: CCK-8 tumor cell proliferation, H1975. The following applies: Homo sapiens, NCI-H1975, H1975 cells, 72 hours. As for the experimental part: as §1
For another experiment, the system named is A431. The experiment in a line: CCK-8 tumor cell proliferation, A431. The following applies: Homo sapiens, A-431, A431 cells, 72 hours. As to the method:
as §1

For the next experiment, the target named is T2, AKT2 (Homo sapiens, UniProt P31751).
T2 construct: AKT1, AKT2, and AKT3 proteins in H1975-OR cells; endogenous in cells; host or cells: H1975-OR (osimertinib-resistant H1975)
T2 sequence (P31751 whole entry): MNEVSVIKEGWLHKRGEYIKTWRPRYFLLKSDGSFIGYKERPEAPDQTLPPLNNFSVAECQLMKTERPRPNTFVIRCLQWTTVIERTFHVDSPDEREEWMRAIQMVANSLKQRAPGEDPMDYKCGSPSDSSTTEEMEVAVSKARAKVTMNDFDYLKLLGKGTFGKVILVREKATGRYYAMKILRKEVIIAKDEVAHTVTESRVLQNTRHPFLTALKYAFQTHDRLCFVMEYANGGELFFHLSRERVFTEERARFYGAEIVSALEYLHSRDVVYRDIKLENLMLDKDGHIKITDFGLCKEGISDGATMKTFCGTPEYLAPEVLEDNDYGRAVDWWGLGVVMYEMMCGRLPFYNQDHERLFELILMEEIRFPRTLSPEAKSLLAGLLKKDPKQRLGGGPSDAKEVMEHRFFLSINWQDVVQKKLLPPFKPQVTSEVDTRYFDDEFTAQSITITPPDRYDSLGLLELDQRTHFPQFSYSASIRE
The experiment is described as follows: Western Blot, degradation of AKT2 protein in H1975-OR cells. The following applies: 1000 nM, 24 hours, maximum degradation rate. As to the method:
as §2, §3

Chain of AKT3 (Q9Y243 whole entry): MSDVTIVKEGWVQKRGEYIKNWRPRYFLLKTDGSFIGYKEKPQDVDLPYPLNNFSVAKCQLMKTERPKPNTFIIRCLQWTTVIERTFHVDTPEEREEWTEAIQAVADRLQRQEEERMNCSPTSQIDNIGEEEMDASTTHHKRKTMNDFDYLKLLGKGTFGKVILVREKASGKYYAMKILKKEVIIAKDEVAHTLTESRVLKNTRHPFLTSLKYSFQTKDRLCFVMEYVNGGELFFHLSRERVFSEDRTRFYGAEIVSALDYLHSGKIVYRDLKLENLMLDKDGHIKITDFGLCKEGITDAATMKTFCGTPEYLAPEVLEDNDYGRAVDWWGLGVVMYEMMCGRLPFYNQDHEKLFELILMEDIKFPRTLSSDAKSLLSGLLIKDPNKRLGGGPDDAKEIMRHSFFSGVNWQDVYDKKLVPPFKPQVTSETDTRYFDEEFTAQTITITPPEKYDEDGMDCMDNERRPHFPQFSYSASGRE

Turning to `C=CC(=O)Nc1cccc(-n2c(=O)cc(C)c3cnc(Nc4ccc(N5CCN(CCOCCOCCNC(=O)CC67CC8CC(CC(C8)C6)C7)CC5)cc4OC)nc32)c1` [ZX-HYT-01], the IC50 in the experiment on H1299 amounted to 10.4 ± 1.72 µM; in the experiment on H1975OR, 2.01 ± 0.444 µM; in the experiment with HCC827, 0.141 ± 0.0372 µM; with PC-9, 1.57 ± 0.258 µM; in the experiment on H1975, 3.27 ± 0.598 µM; with A431, 0.541 ± 0.0589 µM. In addition, the Dmax at 1 µM on AKT3 stood at 67.6%; on AKT1 it was 59.2%; on AKT2 it was 27.2%.

In the case of `C=CC(=O)Nc1cccc(-n2c(=O)cc(C)c3cnc(Nc4ccc(N5CCN(CCCCCCNC(=O)CC67CC8CC(CC(C8)C6)C7)CC5)cc4OC)nc32)c1` [ZX-HYT-02, N-(3-(2-((4-(4-(6-(2-(((3R, 5R, 7R)-adamantan-1-yl)acetamido)hexyl)piperazin-1-yl)-2-methoxyphenyl)amino)-5-methyl-7-oxypyridino [2,3-d]pyrimidin-8 (7H)-yl)phenyl)acrylamide], the IC50 with H1299 came to 8.74 ± 1.12 µM; in the experiment with H1975OR, 0.167 ± 0.025 µM; with HCC827, 0.105 ± 0.00819 µM; in the experiment with PC-9 it was 0.255 ± 0.0394 µM; with H1975, 0.194 ± 0.063 µM; in the experiment on A431, 0.102 ± 0.0095 µM. Besides, the Dmax at 1 µM on AKT3 came out at 30.8%; on AKT1, 0%; at AKT2, 0%.

Consider `C=CC(=O)Nc1cccc(-n2c(=O)cc(C)c3cnc(Nc4ccc(N5CCN(CCCCCCCCNC(=O)CC67CC8CC(CC(C8)C6)C7)CC5)cc4OC)nc32)c1` [ZX-HYT-03, N-(3-(2-((4-(4-(8-(2-(((3R, 5R, 7R)-adamantan-1-yl)acetamido)octyl)piperazin-1-yl)-2-methoxyphenyl)amino)-5-methyl-7-oxypyridino [2,3-d]pyrimidin-8 (7H)-yl)phenyl)acrylamide], for which the 50% inhibitory concentration (IC50) in the experiment with H1299 came out at 0.876 ± 0.283 µM; with H1975OR, 0.074 ± 0.004 µM; in the experiment on HCC827, 0.0954 ± 0.0331 µM; with PC-9 it was 0.0536 ± 0.00753 µM; in the experiment on H1975, 0.844 ± 0.822 µM; with A431, 0.0299 ± 0.0028 µM. Also, the Dmax at 1 µM was determined as 89.1% at AKT3, 78.9% at AKT1 and 64.8% at AKT2.

Regarding `C=CC(=O)Nc1cccc(-n2c(=O)cc(C)c3cnc(Nc4ccc(N5CCN(CCCCCCCCCCNC(=O)CC67CC8CC(CC(C8)C6)C7)CC5)cc4OC)nc32)c1` [ZX-HYT-04, N-(3-(2-((4-(4-(10-(2-(((3R, 5R, 7R)-adamantan-1-yl)acetylamino)decyl)piperazin-1-yl)-2-methoxyphenyl)amino)-5-methyl-7-oxypyridino [2,3-d]pyrimidin-8 (7H)-yl)phenyl)acrylamide], the IC50 in the experiment on H1299 is 0.305 ± 0.166 µM; with H1975OR, 0.083 ± 0.019 µM; with HCC827 it was 0.0555 ± 0.0327 µM; in the experiment with PC-9, 0.0181 ± 0.00105 µM; in the experiment with H1975, 1.77 ± 0.187 µM; with A431, 0.0102 ± 0.002 µM. Also, the values for the Dmax at 1 µM at AKT3, at AKT1 and on AKT2 were 26.6%, 0% and 0%, respectively.

Turning to `C=CC(=O)Nc1cccc(-n2c(=O)cc(C)c3cnc(Nc4ccc(N5CCN(CCCCCCCCCCCCNC(=O)CC67CC8CC(CC(C8)C6)C7)CC5)cc4OC)nc32)c1` [ZX-HYT-05, N-(3-(2-((4-(4-(12-(2-(((3R, 5R, 7R)-adamantan-1-yl)acetylamino)dodecyl)piperazin-1-yl)-2-methoxyphenyl)amino)-5-methyl-7-oxypyridino [2,3-d]pyrimidin-8 (7H)-yl)phenyl)acrylamide], the IC50 turned out to be 0.338 ± 0.0855 µM in the experiment with H1299; 0.009 ± 0.002 µM in the experiment on H1975OR; 0.126 ± 0.0216 µM with HCC827; 0.0083 ± 0.000333 µM with PC-9; 5.19 ± 4.59 µM in the experiment with H1975; 0.00806 ± 0.0003 µM in the experiment on A431. The figures for the Dmax at 1 µM at AKT3, on AKT1 and at AKT2 were 71.9%, 34.4% and 29.9%, respectively.

On to `C=CC(=O)Nc1cccc(-n2c(=O)cc(C)c3cnc(Nc4ccc(N5CCN(CCCCCCCCCCCCCCNC(=O)CC67CC8CC(CC(C8)C6)C7)CC5)cc4OC)nc32)c1` [ZX-HYT-06, N-(3-(2-((4-(4-(14-(2-((3R, 5R, 7R)-adamantan-1-yl)acetylamino)tetradecyl)piperazin-1-yl)-2-methoxyphenyl)amino)-5-methyl-7-oxypyridino [2,3-d]pyrimidin-8 (7H)-yl)phenyl) acrylamide], for which the IC50 with H1299 is 0.163 ± 0.0134 µM; in the experiment on H1975OR, 0.125 ± 0.012 µM; in the experiment with HCC827 it was 0.163 ± 0.0134 µM; in the experiment on PC-9, 0.0732 ± 0.00431 µM; with H1975 it was 0.837 ± 0.11 µM; in the experiment with A431, 0.26 ± 0.047 µM. The values for the Dmax at 1 µM on AKT3, on AKT1 and at AKT2 were 62.9%, 0% and 47%, respectively.

`COc1cc(N2CCN(CCCCCCCCCCCCNC(=O)CC34CC5CC(CC(C5)C3)C4)CC2)ccc1Nc1ncc2c(C)cc(=O)n(-c3cccc(NC(=O)C4CCCCC4)c3)c2n1` [ZX-HYT-13, N-(3-(2-((4-(4-(12-(2-(((3R, 5R, 7R)-adamantan-1-yl)acetylamino)dodecyl)piperazin-1-yl)-2-methoxyphenyl)amino)-5-methyl-7-oxypyridino [2,3-d]pyrimidin-8 (7H)-yl)phenyl)cyclohexane formamide]: the IC50 in the experiment on H1299 was greater than 10 µM; in the experiment with H1975OR, 0.216 ± 0.032 µM; in the experiment with HCC827, 10.7 ± 3.88 µM; in the experiment with PC-9 it was greater than 10 µM; in the experiment with H1975 it was 6.96 ± 6.04 µM; in the experiment with A431, 2.29 ± 0.0474 µM.

Turning to `C=CC(=O)Nc1ccc(-n2c(=O)cc(C)c3cnc(Nc4ccc(N5CCN(CCCCCCCCCCCCNC(=O)CC67CC8CC(CC(C8)C6)C7)CC5)cc4OC)nc32)cc1` [ZX-HYT-14, N-(4-(2-((4-(4-(12-(2-(((3R, 5R, 7R)-adamantan-1-yl)acetylamino)dodecyl)piperazin-1-yl)-2-methoxyphenyl)amino)-5-methyl-7-oxypyridino [2,3-d]pyrimidin-8 (7H)-yl)phenyl)acrylamide], the IC50 in the experiment on H1299, in the experiment with H1975OR, in the experiment with HCC827, in the experiment on PC-9, in the experiment with H1975 and in the experiment on A431 was greater than 10 µM each time.

For the compound `COc1cc(N2CCN(CCCCCCCCCCCCNC(=O)CC34CC5CC(CC(C5)C3)C4)CC2)ccc1Nc1ncc2c(C)cc(=O)n(-c3ccc(NC(=O)C4CC4)cc3)c2n1` [ZX-HYT-15, N-(4-(2-((4-(4-(12-(2-(((3R, 5R, 7R)-adamantan-1-yl)acetylamino)dodecyl)piperazin-1-yl)-2-methoxyphenyl)amino)-5-methyl-7-oxypyridino [2,3-d]pyrimidin-8 (7H)-yl)phenyl)cyclopropane formamide], the IC50 in the experiment with H1299 is greater than 10 µM; with H1975OR, greater than 10 µM; with HCC827, greater than 10 µM; in the experiment with PC-9, 4.8 ± 0.501 µM; in the experiment on H1975, greater than 10 µM; in the experiment with A431, greater than 10 µM.

Regarding `COc1cc(N2CCN(CCCCCCCCCCCCNC(=O)CC34CC5CC(CC(C5)C3)C4)CC2)ccc1Nc1ncc2c(C)cc(=O)n([C@H]3CC[C@@H](NC(=O)C4CC4)C3)c2n1` [ZX-HYT-20, N-((1R,3S)-3-(2-((4-(4-(12-(2-((3R, 5R, 7R)-adamantan-1-yl)acetylamino)dodecyl)piperazin-1-yl)-2-methoxyphenyl)amino)-5-methyl-7-oxypyridino [2,3-d]pyrimidin-8 (7H)-yl)cyclopentyl) cyclopropane formamide], the values for the IC50 in the experiment with PC-9 and with A431 were 0.295 µM and 0.106 µM, respectively.

Take `COc1cc(N2CCN(CCCCCCCCCCCCNC(=O)CC34CC5CC(CC(C5)C3)C4)CC2)ccc1Nc1ncc2c(C)cc(=O)n(C3CCCC3)c2n1` [ZX-HYT-24, 2-(((3R, 5R, 7R)-adamantan-1-yl)-N-(12-(4-(4-(8-cyclopentyl-5-methyl-7-oxy-7,8-dihydropyridinyl [2,3-d]pyrimidin-2-yl)amino)-3-methoxyphenyl)piperazin-1-yl)dodecyl) acetamide]: the IC50 was determined as 0.734 ± 0.00594 µM in the experiment with H1975OR, 1.4 ± 0.248 µM in the experiment with HCC827, 2.67 ± 0.471 µM in the experiment on H1975 and 0.212 ± 0.0653 µM with A431. Further, the Dmax at 1 µM stood at 51.5% at AKT3, 0% at AKT1 and 0% on AKT2.
